Assay results reported in US6723733B2, “Sulfonamide and carbamide derivatives of 6(5H)phenanthridinones and their uses” (Guilford Pharmaceuticals, Inc., priority 2000, dated 2004).

Experiments:
rabbits = conditions: cited from earlier work
Swiss albino mice = experiment: MSU crystal-induced neutrophil recruitment (gout model, peritonitis); assay type: in vivo, mouse; conditions: 45 mg/kg i.p.
Method: Male outbread Swiss albino mice (20-22 g body weight) were purchased from Banton and Kingsman (T.O. strain; Hull, Humberside) and maintained on a standard chow pellet diet with tap water ad libitum and a 12:00 h light/dark cycle. All animals were housed for 1 week prior to experimentation to allow body weight to reach 28-30 g.
1,1,1lb-dihydrobenzopyrano[4,3,2-de]isoquinolin-1-one was dissolved in 100% DMSO at room temperature at a concentration of 45 mg in 2 ml. The compound was then injected into the peritoneal cavity, so as each mouse received a single dose corresponding to 45 mg/2 ml/kg (e.g. 60 μl for a mouse of 30 g). […]
MSU crystal-induced neutrophil recruitment was tested as follows. […] Peritonitis was induced by injection of 3 mg MSU crystals in 0.5 ml PBS (0.1 M, pH 7.4), and the recruitment of neutrophils into the cavity evaluated at the 6 h time point (Getting et al., 1997, J. Pharmacol. Exp. Ther. 283: 123-130). […]
An aliquot (100 μl) of the lavage fluid was then diluted 1:10 in Turk's solution (0.01% crystal violet in 3% acetic acid). The samples were then vortexed and 10 μl of the stained cell solution were placed in a Neubauer haematocymometer and neutrophils numbers counted using a light microscope (Olympus B061). […]
Data are shown for single mice, and also shown as mean±S.E. of (n) mice per group. Statistical differences were determined by ANOVA, plus Bonferroni test. […]

male Long-Evans rats = experiment: Focal cerebral ischemia (MCA cauterization with temporary bilateral CCA occlusion); assay type: in vivo, rat; conditions: 24 h, mean±SD
Method: Focal cerebral ischemia is produced by cauterization of the right distal MCA (middle cerebral artery) with bilateral temporary common carotid artery occlusion in male Long-Evans rats for 90 minutes. All procedures performed on the animals are approved by the University Institutional Animal Care and Use Committee of the University of Pennsylvania. A total of 42 rats (weights: 230-340 g) obtained from Charles River were used in this study. The animals fasted overnight with free access to water prior to the surgical procedure
Two hours prior to MCA occlusion, varying amounts (control, n=14; 5 mg/kg, n=7; 10 mg/kg, n=7; 20 mg/kg, n=7; and 40 mg/kg, n=7) of the compound, 3,4-dihydro-5-[4-(1-piperidinyl)-butoxy]-1(2H)-isoquinolinone (“DPQ”) were dissolved in dimethyl sulfoxide (DMSO) using a sonicator. A volume of 1.28 ml/kg of the resulting solution was injected intraperitoneally into […].
The rats were then anesthetized with halothane (4% for induction and 0.8%-1.2% for the surgical procedure) in a mixture of 70% nitrous oxide and 30% oxygen. The body temperature was monitored by a rectal probe and maintained at 37.5±0.5° C. with a heating blanket regulated by a homeothermic blanket control unit (Harvard Apparatus Limited, Kent, U.K.). A catheter (PE-50) was placed into the tail artery, and arterial pressure was continuously monitored and recorded on a Grass polygraph recorder (Model 7D, Grass Instruments, Quincy, Mass.). Samples for blood gas analysis (arterial pH, PaO2 and PaCO2) were also taken from the tail artery catheter and measured with a blood gas analyzer (ABL 30, Radiometer, Copenhagen, Denmark). Arterial blood samples were obtained 30 minutes after MCA occlusion.
The head of the animal was positioned in a stereotaxic frame, and a right parietal incision between the right lateral canthus and the external auditory meatus was made. Using a dental drill constantly cooled with saline, a 3 mm burr hole was prepared over the cortex supplied by the right MCA, 4 mm lateral to the sagittal suture and 5 mm caudal to the coronal suture. The dura mater and a thin inner bone layer were kept, care being taken to position the probe over a tissue area devoid of large blood vessels. The flow probe (tip diameter of 1 mm, fiber separation of 0.25 mm) was lowered to the bottom of the cranial burr hole using a micromanipulator. The probe was held stationary by a probe holder secured to the skull with dental cement. The microvascular blood flow in the right parietal cortex was continuously monitored with a laser Doppler flowmeter (FloLab, Moor, Devon, U.K., and Periflux 4001, Perimed, Stockholm, Sweden). […]

Oc1cccc2c(O)nccc12 [1,5-dihydroxyisoquinoline]
reduction in infarct size (rabbits; single injection 1 mg/kg): 38-48%

O=C1N=Cc2cccc3c2C1c1ccccc1O3 (centres unmarked) [1,11b-dihydrobenzopyrano[4,3,2-de]isoquinolin-1-one]
inhibition of cell influx vs. the vehicle group (Swiss albino mice; 6 h after MSU crystals): 55%
Neutrophils (10^6 per mouse), mean ± S.E. (Swiss albino mice; group C, MSU crystals (3 mg), 6 h, n=8, P < 0.05 vs. vehicle group B (6.30 ± 0.33)): 2.85 ± 0.34 (8) * 10^6 per mouse

NC(=O)c1cccc(N)c1 [3-amino-benzamide]
reduction in infarct size in the heart (rabbits; single injection 10 mg/kg, one minute before occlusion or before reperfusion): 32-42%

O=C1NCCc2c(OCCCCN3CCCCC3)cccc21 [DPQ, 3,4-dihydro-5-[4-(1-piperidinyl)-butoxy]-1(2H)-isoquinolinone]
damaged volume (total volume of infarction) (male Long-Evans rats; 5 mg/kg i.p. 2 h before and 2 h after MCA occlusion, control 165.2±34.0, p<0.001): 106.7±23.2 mm^3
damaged volume (total volume of infarction) (male Long-Evans rats; 10 mg/kg i.p. 2 h before and 2 h after MCA occlusion, control 165.2±34.0 mm^3, p<0.001): 76.4±16.8 mm
damaged volume (total volume of infarction) (male Long-Evans rats; 20 mg/kg i.p. 2 h before and 2 h after MCA occlusion, control 165.2±34.0, p<0.01): 110.2±42.0 mm^3
damaged volume (total volume of infarction) (male Long-Evans rats; 40 mg/kg i.p. 2 h before and 2 h after MCA occlusion, no significant difference from control 165.2±34.0): 135.6±44.8 mm^3
